For the test, the target named is Neurogenic locus notch homolog protein 3 (Human, UniProt Q9UM47). As to the kind of experiment: Biological Assay.
Chain of Neurogenic locus notch homolog protein 3 (Q9UM47 whole entry): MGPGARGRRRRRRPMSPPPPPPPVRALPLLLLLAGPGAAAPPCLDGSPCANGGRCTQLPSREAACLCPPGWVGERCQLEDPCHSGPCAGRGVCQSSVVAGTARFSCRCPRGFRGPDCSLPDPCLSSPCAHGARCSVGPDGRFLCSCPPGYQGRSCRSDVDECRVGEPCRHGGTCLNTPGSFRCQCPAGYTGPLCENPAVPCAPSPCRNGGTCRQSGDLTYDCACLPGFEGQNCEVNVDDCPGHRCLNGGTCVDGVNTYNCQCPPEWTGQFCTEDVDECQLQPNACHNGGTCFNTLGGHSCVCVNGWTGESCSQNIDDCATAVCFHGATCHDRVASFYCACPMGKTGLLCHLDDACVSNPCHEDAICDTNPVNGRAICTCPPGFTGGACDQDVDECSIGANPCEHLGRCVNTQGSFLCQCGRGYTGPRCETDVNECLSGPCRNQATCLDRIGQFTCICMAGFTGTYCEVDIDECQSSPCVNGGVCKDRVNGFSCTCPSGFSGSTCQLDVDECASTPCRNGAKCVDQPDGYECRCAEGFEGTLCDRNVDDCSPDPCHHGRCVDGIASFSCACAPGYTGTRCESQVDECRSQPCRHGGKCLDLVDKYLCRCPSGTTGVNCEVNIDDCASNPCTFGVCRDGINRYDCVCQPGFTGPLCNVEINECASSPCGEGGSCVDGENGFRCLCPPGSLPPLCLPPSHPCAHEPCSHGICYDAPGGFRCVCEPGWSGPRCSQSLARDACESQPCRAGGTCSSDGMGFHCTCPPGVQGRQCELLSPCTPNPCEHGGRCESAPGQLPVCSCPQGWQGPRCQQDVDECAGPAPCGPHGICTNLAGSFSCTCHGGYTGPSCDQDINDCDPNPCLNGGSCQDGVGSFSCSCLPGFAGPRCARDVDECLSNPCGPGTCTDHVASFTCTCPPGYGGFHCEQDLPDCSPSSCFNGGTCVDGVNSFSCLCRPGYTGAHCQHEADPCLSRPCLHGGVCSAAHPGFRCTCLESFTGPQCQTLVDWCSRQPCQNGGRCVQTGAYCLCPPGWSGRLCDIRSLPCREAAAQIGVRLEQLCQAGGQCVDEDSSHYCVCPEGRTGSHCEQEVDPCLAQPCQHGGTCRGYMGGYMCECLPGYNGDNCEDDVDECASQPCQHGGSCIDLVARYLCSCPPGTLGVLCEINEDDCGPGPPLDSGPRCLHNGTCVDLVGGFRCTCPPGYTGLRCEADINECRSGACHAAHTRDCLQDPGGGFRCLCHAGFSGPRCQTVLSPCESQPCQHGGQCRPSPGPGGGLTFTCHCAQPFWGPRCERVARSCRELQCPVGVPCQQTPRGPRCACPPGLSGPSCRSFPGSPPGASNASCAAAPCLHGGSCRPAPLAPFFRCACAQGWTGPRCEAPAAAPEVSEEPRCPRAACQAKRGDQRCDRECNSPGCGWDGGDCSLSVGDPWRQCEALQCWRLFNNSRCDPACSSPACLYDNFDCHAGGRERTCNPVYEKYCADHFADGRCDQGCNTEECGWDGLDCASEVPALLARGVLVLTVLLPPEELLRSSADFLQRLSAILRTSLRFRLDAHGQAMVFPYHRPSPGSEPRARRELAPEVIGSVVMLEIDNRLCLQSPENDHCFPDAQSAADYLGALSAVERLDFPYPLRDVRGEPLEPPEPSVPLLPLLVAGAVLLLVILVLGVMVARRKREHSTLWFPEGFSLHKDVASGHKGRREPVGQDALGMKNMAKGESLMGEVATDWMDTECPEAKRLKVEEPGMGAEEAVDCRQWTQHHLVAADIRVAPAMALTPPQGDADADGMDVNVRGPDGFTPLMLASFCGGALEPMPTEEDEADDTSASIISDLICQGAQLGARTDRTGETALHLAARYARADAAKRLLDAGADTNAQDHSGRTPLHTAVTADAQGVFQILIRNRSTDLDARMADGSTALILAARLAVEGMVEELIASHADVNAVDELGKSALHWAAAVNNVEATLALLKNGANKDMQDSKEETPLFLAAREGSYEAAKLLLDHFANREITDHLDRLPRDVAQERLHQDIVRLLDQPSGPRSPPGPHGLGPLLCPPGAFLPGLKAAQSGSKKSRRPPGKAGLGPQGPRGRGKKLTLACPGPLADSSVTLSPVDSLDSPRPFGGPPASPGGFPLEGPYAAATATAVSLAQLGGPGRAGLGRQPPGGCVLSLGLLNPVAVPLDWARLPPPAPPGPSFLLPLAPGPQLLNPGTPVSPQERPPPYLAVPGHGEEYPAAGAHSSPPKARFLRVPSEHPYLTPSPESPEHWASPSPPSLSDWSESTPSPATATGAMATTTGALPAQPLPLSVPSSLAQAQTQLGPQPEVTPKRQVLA

With `CC(C)c1cccc2c1NC(=O)[C@@H](NC(=O)[C@H](CCC(F)(F)F)[C@H](CCC(F)(F)F)C(N)=O)N=C2c1ccccc1` [US9273014, 13], half-maximal inhibition (IC50) was put at 4.9 nM.

As to `COc1cccc2c1NC(=O)[C@@H](NC(=O)[C@H](CCC(F)(F)F)[C@H](CCC(F)(F)F)C(N)=O)N=C2c1cccc(C)c1` [US9273014, 29], the IC50 (usually the concentration that inhibits the measured activity by half) was determined as 5.7 nM.

The record behind these values is BindingDB's records for patent US9273014 (Bristol-Myers Squibb Co., 2016).
